{
  "source": "patent US6835567B1",
  "about": "“PNS cell lines and methods of use therefor” (priority 1998, dated 2004)",
  "molecules": {"B1": {"name": "NT-3: neurotrophin-3 (protein, UniProt P20783 139-257, looked up)", "Neurotrophin-3": "YAEHKSHRGEYSVCDSESLWVTDKSSAIDIRGHQVTVLGEIKTGNSPVKQYFYETRCKEARPVKNGCRGIDDKHWNSQCKTSQTYVRALTSENNKLVGWRWIRIDTSCVCALSRKIGRT"}, "B2": {"name": "IL-11: interleukin IL-11, differentiating factor (protein, UniProt P20809 22-199, looked up)", "Interleukin-11": "PGPPPGPPRVSPDPRAELDSTVLLTRSLLADTRQLAAQLRDKFPADGDHNLDSLPTLAMSAGALGALQLPGVLTRLRADLLSYLRHVQWLRRAGGSSLKTLEPELGTLQARLDRLLRRLQLLMSRLALPQPPPDPPAPPLAPPSSAWGGIRAAHAILGGLHLTLDWAVRGLLLLKTRL"}},
  "key": {"[1]": {"test_system": "differentiated immortalized rat DRG cells", "assay": "Whole-cell patch clamp, ATP current in rat DRG cells", "type": "cell-based", "conditions": "for desensitization of elicited currents: 100 μM, 5-second applications, differentiated 3-4 weeks"}, "[2]": {"test_system": "differentiated HDRGVIII-C10 cells", "assay": "Whole-cell patch clamp, ATP current in […]-C10", "type": "cell-based, human", "conditions": "10 μM; differentiated 1-2 weeks"}, "HDRGVIII-C10.6 cells [3]": {"test_system": "HDRGVIII-C10.6 cells", "assay": "Whole-cell patch clamp characterization of […]-C10.6", "type": "cell-based, human", "conditions": "for I Purinergic (αβmeATP): 100 μM; for I Capsaicin: 1 μM"}, "[4]": {"test_system": "conditionally-immortalized rat neural crest stem cells", "assay": "βIII tubulin immunolabeling, immortalized rat neural crest stem cells", "type": "cell-based", "conditions": "with tetracycline, 5 days; LIF 100 ng/ml; EFN = EGF 100 ng/ml, FGF-2 4 ng/ml, NGF 2.0 ng/ml"}, "HDRGVIII-C10 cells": {"test_system": "HDRGVIII-C10 cells", "assay": "NF160 immunolabeling after differentiation of […]-C10", "type": "cell-based", "conditions": "10 days with tetracycline, human serum, GDNF, CNTF, NGF plus forskolin (10 μM) or retinoic acid (0.5 μM)", "excerpt": "Neuronal differentiation. […] After differentiation, phase-bright cells extending long fasciculating processes were present."}, "[5]": {"test_system": "immortalized rat DRG cultures", "assay": "βIII tubulin and NF160 immunolabeling, immortalized rat DRG cultures", "type": "cell-based", "conditions": "for βIII-tubulin positive cells: 10 ng/mL in combination with NGF, rat serum and retinoic acid, rat tail collagen substrate"}, "v-myc oncoprotein": {"test_system": "v-myc oncoprotein", "assay": "Immunocytochemistry for v-myc in […]-C10", "type": "cell-based, human", "conditions": "after 6 days of tetracycline treatment (75±1.3% in proliferative condition)"}, "capsaicin receptors [6]": {"target": "T1, capsaicin receptors (Homo sapiens, UniProt Q8NER1)", "T1 construct": "endogenous in cells", "T1 sequence (Q8NER1 whole entry)": "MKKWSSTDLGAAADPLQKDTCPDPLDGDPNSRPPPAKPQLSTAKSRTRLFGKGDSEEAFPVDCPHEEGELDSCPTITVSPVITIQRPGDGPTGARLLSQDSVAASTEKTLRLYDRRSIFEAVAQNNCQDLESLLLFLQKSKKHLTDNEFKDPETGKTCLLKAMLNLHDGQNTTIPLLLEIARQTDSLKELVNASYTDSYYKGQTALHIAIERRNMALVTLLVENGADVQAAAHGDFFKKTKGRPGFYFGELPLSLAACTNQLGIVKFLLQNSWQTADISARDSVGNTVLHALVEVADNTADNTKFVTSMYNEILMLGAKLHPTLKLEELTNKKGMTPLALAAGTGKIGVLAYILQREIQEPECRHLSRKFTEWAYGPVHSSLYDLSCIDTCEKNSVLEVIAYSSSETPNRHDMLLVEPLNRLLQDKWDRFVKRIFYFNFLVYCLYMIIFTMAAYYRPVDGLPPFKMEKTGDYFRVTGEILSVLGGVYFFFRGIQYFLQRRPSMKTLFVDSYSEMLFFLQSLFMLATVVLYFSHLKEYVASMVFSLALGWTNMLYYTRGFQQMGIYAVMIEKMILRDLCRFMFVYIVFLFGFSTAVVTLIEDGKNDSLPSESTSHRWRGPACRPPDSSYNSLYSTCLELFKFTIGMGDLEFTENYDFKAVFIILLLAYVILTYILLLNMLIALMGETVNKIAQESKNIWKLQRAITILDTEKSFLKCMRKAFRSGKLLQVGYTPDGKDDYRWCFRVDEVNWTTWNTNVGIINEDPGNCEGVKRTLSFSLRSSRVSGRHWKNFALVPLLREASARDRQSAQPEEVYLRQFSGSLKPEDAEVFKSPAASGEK", "assay": "Cobalt histology for capsaicin sensitivity, […]-C10.6", "type": "cell-based", "conditions": "10 μM capsaicin; differentiated 7 days with T, HS, Fsk, G, C, N plus NT-3", "excerpt": "(§1) In certain aspects of the present invention, conditionally-immortalized PNS progenitor cell lines may be used in a variety of in vitro assays and screens. In one such aspect, the cell lines may be used in in vitro assays for agents that inhibit the capsaicin response. Briefly, a clonal neuronal cell line may be differentiated under conditions in which capsaicin responsiveness can be assessed with a cobalt histological method. Capsaicin can be added to the culture in the presence or absence of a candidate agent, and cobalt uptake evaluated. Agents that block cobalt staining may act as capsaicin receptor antagonists."}, "capsaicin receptors [7]": {"target": "T1, capsaicin receptors", "assay": "Whole-cell patch clamp, capsaicin current in […]-C10", "type": "cell-based"}, "[8]": {"test_system": "differentiated immortalized rat DRG cells", "assay": "Whole-cell patch clamp, capsaicin current in rat DRG cells", "type": "cell-based", "conditions": "differentiated rat DRG cells (n=6)"}, "capsaicin receptors [9]": {"target": "T1, capsaicin receptors", "assay": "Cobalt histology for capsaicin sensitivity, […]-C11", "type": "cell-based", "excerpt": "as §1"}, "HDRGVIII-C11 cells": {"test_system": "HDRGVIII-C11 cells", "assay": "βIII-tubulin-positive neurons after differentiation of […]-C11", "type": "cell-based, human"}, "HDRGVIII-C10.6 cells [10]": {"test_system": "HDRGVIII-C10.6 cells", "assay": "Peripherin immunolabeling after differentiation of […]-C10.6", "type": "cell-based, human", "conditions": "T, HS, Fsk, G, C, N, plus NT-3 (25 ng/ml), 5 days (31±9% without NT-3)"}},
  "note": "Entries after “also recorded” stand apart in the source; their conditions may differ.",
  "data": [
    {"molecule": "Nc1ncnc2c1ncn2[C@@H]1O[C@H](COP(=O)(O)OP(=O)(O)OP(=O)(O)O)[C@@H](O)[C@H]1O", "note": "[ATP]", "values": [
      {"measurement": "desensitization of elicited currents", "setting": "[1]", "value": "~15", "unit": "%"},
      {"measurement": "cells with ATP-activated current", "setting": "[1]; after 1 week of differentiation (n=14)", "value": "no cells"},
      {"measurement": "cells with ATP-activated current", "setting": "[1]; after 3 weeks of differentiation", "value": "~30", "unit": "%"}
    ]},
    {"molecule": "Nc1ncnc2c1ncn2[C@@H]1O[C@H](COP(=O)(O)CP(=O)(O)OP(=O)(O)O)[C@@H](O)[C@H]1O", "note": "[αβ-meATP, αβ-methylene-ATP]", "values": [
      {"measurement": "currents elicited", "setting": "[2]", "value": "Rapidly activating and strongly desensitizing currents"},
      {"measurement": "desensitization of elicited currents", "setting": "[1]", "value": "~15", "unit": "%"},
      {"measurement": "cells with αβ-meATP responses", "setting": "[1]; differentiated rat DRG cells", "value": "1 of 20"},
      {"measurement": "I Purinergic (αβmeATP)", "setting": "HDRGVIII-C10.6 cells [3]; Proliferative, held at -80 mV", "value": "29 ± 15", "unit": "pA"},
      {"measurement": "I Purinergic (αβmeATP)", "setting": "HDRGVIII-C10.6 cells [3]; THSFskGCN, 8 days", "value": "3 ± 3", "unit": "pA"},
      {"measurement": "I Purinergic (αβmeATP)", "setting": "HDRGVIII-C10.6 cells [3]; THSFskGCN, 11 days", "value": "226 ± 80", "unit": "pA"}
    ]},
    {"molecule": "LIF: leukemia inhibitory factor", "values": [
      {"measurement": "βIII tubulin positive cells", "setting": "[4]", "value": 28.4, "unit": "%"}
    ]},
    {"molecule": "NC1=N[C@H](O)[C@H]2[C@H]3O[C@]4(O)O[C@@H]([C@@H](O)[C@@]2(N1)[C@@H]4O)[C@]3(O)CO", "note": "[TTX, tetrodotoxin]", "values": [
      {"measurement": "sensitivity of voltage-gated sodium currents", "setting": "HDRGVIII-C10.6 cells [3]", "value": "TTX-sensitive"}
    ]},
    {"molecule": "CC1=C(/C=C/C(C)=C/C=C/C(C)=C/C(=O)O)C(C)(C)CCC1", "note": "[retinoic acid]", "values": [
      {"measurement": "cells with NF160 staining", "setting": "HDRGVIII-C10 cells", "value": 8.1, "unit": "%"}
    ]},
    {"molecule": "IL-1β: interleukin-1β", "values": [
      {"measurement": "βIII-tubulin positive cells", "setting": "[5]", "value": 33, "unit": "%"}
    ]},
    {"molecule": "C=C[C@@]1(C)CC(=O)[C@]2(O)[C@@]3(C)[C@@H](O)CCC(C)(C)[C@@H]3[C@H](O)[C@H](OC(C)=O)[C@@]2(C)O1", "note": "[forskolin]", "values": [
      {"measurement": "cells with NF160 staining", "setting": "HDRGVIII-C10 cells", "value": "15±2.2", "unit": "%"}
    ]},
    {"molecule": "CN(C)[C@@H]1C(O)=C(C(N)=O)C(=O)[C@@]2(O)C(O)=C3C(=O)c4c(O)cccc4[C@@](C)(O)[C@H]3C[C@@H]12", "note": "[tetracycline]", "values": [
      {"measurement": "βIII tubulin positive neurons", "setting": "[5]; tetracycline alone", "value": "~2.5", "unit": "%"},
      {"measurement": "percentage of v-myc positive cells", "setting": "v-myc oncoprotein", "value": "1.1±0.8", "unit": "%"}
    ]},
    {"molecule": "COc1cc(CNC(=O)CCCC/C=C/C(C)C)ccc1O", "note": "[capsaicin]", "values": [
      {"measurement": "cells with neuronal morphology exhibiting cobalt uptake", "setting": "capsaicin receptors [6]", "value": "30.8±2.9", "unit": "%"},
      {"measurement": "response to capsaicin", "setting": "capsaicin receptors [7]; 1 μM, differentiated cells with neuronal morphology", "value": "exhibited responses"},
      {"measurement": "response to capsaicin", "setting": "capsaicin receptors [7]; prior to differentiation", "value": "no immortalized human PNS HDRGVIII-C10 cells exhibited responses"},
      {"measurement": "response to capsaicin", "setting": "[8]", "value": "did not exhibit responses"},
      {"measurement": "cells with neuronal morphology sensitive to capsaicin (cobalt precipitate)", "setting": "capsaicin receptors [9]; 10 μM or 100 μM, differentiated with T, HS, Fsk, G, C, N plus NT-3", "value": "Approximately 30%"},
      {"measurement": "I Capsaicin", "setting": "HDRGVIII-C10.6 cells [3]; Proliferative, held at -80 mV", "value": 0, "unit": "pA"},
      {"measurement": "I Capsaicin", "setting": "HDRGVIII-C10.6 cells [3]; THSFskGCN, 8 days", "value": "114 ± 14", "unit": "pA"},
      {"measurement": "I Capsaicin", "setting": "HDRGVIII-C10.6 cells [3]; THSFskGCN, 11 days", "value": "217 ± 36", "unit": "pA"}
    ]},
    {"molecule": "Oc1cc2c(cc1O)CN(C(=S)NCCc1ccc(Cl)cc1)CCC2", "note": "[capsazepine]", "values": [
      {"measurement": "effect on response to 1 μM capsaicin", "setting": "capsaicin receptors [7]; 20 μM capsazepine", "value": "blocked; also recorded: inhibited"},
      {"measurement": "effect on capsaicin (10 μM)-induced cobalt labeling", "setting": "capsaicin receptors [9]; 100 μM capsazepine", "value": "reduced substantially"}
    ]},
    {"molecule": "B1", "values": [
      {"measurement": "βIII tubulin positive cells expressing NF160", "setting": "[5]; NT-3 added to medium containing NGF plus LIF or CNTF (less than 25% in absence of NT-3)", "value": "≥ 65", "unit": "%"},
      {"measurement": "cells differentiated into βIII-tubulin-positive neurons", "setting": "HDRGVIII-C11 cells; NT-3 added to standard differentiating medium (1.4±0.6% without NT-3)", "value": "4.0±2.2", "unit": "%"},
      {"measurement": "cells expressing peripherin", "setting": "HDRGVIII-C10.6 cells [10]", "value": "43±8", "unit": "%"}
    ]},
    {"molecule": "B2", "values": [
      {"measurement": "βIII-tubulin positive cells", "setting": "[5]", "value": 34, "unit": "%"},
      {"measurement": "βIII-tubulin-positive neurons", "setting": "HDRGVIII-C11 cells; differentiated with T, HS, Fsk, NGF plus IL-11", "value": "1.5±0.9", "unit": "%"}
    ]}
  ]
}
